Data published in patent US20140011755A1, “Cardiac Glycosides for Treating Autoimmune Disease” (Department of Veterans Affairs, priority 2010, published 2014).
Where two headings read alike, the source gives them in different places.

Assays:
[1] = system: IL-10 cytokine secretion from B cells; assay: IL-10 secretion (ELISA) by splenic B cells from treated MRL-Ipr mice; assay type: cell-based
Description: FIG. 19. […] MACS-purified B cells from vehicle or digitoxin-treated 23 week-old female MRL-Ipr mice were harvested from the spleen. 2×10^5 B cells were incubated either media, mifespristone (0.8 nM), Jak inhibitor I (15 nM), STAT3 inhibitor VI (500 μM) or dasatinib (1.1 nM) for 60 minutes, washed and incubated for 48 hr at 37° C. Cell supernatant was collected and ELISAs were used to quantify the amount of secreted IL-10 cytokine in each condition. Data represent the average of triplicate conditions and error bars represent the SEM. Statistical significance was performed using the student t-test.

[2] = system: splenocytes derived from mice with CIA; assay: CIA splenocyte proliferation (3H-thymidine incorporation); assay type: cell-based
Description: Activity was monitored by ^3H-thymidine incorporation as a read-out for proliferation. […] Cell type(s) in the splenocyte population responsive to therapeutic concentrations of cardiac glycoside were determined by identifying the population of cells that responded to a dose-dependent decrease in activity in the presence of stimulant, defined as ligand(s) binding to cognate receptor(s). Activity was analyzed by: ^3H-thymidine or BrdU incorporation to monitor proliferation or by ELISA to monitor cytokine production. Splenic T lymphocytes were isolated by negative selection (MACS, Miltinyi Biotec) and are stimulated with PMA, ConA or through the TCR with anti-CD3/anti-CD28 Dynabeads (Invitrogen) and collagen II (all non-TNFR receptors/pathways). […] Peritoneal and bone marrow-derived macrophages were isolated from CIA mice in the presence of M-CSF growth factor and were stimulated with TNF and CD40 ligand (CD40L). […] Splenic B lymphocytes were isolated by negative selection (MACS, Miltinyi Biotec) and were stimulated with BAFF (BLyS), CD40L or through the BCR with anti-IgM u-chain specific antibodies.

[3] = Serum concentration obtained with experimental dosing regimen, mouse; assay type: in vivo; settings: 0.3 mg/kg per diem, i.p., experimentally determined
Description: Dosing regimens in humans vary according to the cardiac glycoside and constitution thereof. Table 3 depicts representative dosing regimens reported in the literature compared to experimental regiments used in mice that are representative of human dosing. Successful dosing detailed in this application includes but is not limited to 0.03-0.4 mg/kg., or from 0.001 to 5 mg/kg.

[4] = Human, oral; Smith, TW (1970); cited from earlier work
[5] = system: collagen-induced arthritis (CIA) joints; assay type: in vivo, DBA1/J mice; settings: cross-sectioned ankle joints, CIA prevention groups
Description: FIG. 7. Cardiac glycosides reduce joint pathology in the CIA mouse model for rheumatoid arthritis. Blinded scoring was performed on histologic sections of joints harvested from mice at the end of a CIA prevention study (A-C). Joints derived from three representative mice belonging to each prevention group (A-C) were decalcified, fixed and stained with tolidine blue, followed by scoring by an examiner blinded to treatment status for the severity of synovitis (inflammation), pannus (growth of the synovial lining), and erosions of bone. (D-G) Joints derived from three representative mice belonging to each prevention group were decalcified, fixed, and stained with hematoxylin and eosin. Cross-sectioned ankle joints from vehicle (D), digitoxin (E), ouabain (F) and proscillaridin (G) treated mice are presented. Error bars represent SEM, and asterisks indicate P-values less than 0.05 by Mann-Whitney test.
In treatment studies, mice were randomly enrolled in treatment groups and treatment commenced when the average clinical score was at or above 2. […] Daily dosing commenced upon enrollment at the abovementioned concentrations. […] Double-blinded histopathology scoring was conducted of cross-sectioned joints taken from cardiac glycoside and vehicle recipients. […] The results obtained from these animal studies indicate that cardiac glycosides are effective at reducing the clinical manifestations of disease and reducing joint pathology in mice with collagen arthritis.
The effects of the different cardiac glycoside treatments on CIA pathology was analyzed by histological scoring. Inflammatory cell infiltrate, synovial hyperplasia, pannus formation and articular cartilage and bone deterioration were evaluated in sectioned paws of treated mice at specific time-points throughout the disease course. […] The ELISA was developed and read using BD ELISA development kit. […]

Question: Which results are given for `C[C@H]1O[C@@H](O[C@H]2[C@@H](O)C[C@H](O[C@H]3[C@@H](O)C[C@H](O[C@H]4CC[C@@]5(C)[C@H](CC[C@@H]6[C@@H]5CC[C@]5(C)[C@@H](C7=CC(=O)OC7)CC[C@]65O)C4)O[C@@H]3C)O[C@@H]2C)C[C@H](O)[C@@H]1O` [Digitoxin, digitoxin]?
Answer: secreted IL-10 cytokine ([1]; 2×10^5 B cells from vehicle or digitoxin-treated 23 week-old mice, 48 hr, ELISA): induces IL-10 cytokine secretion; mechanism dependence of IL-10 secretion (inhibitor pre-incubation) ([1]; mifespristone 0.8 nM, Jak inhibitor I 15 nM, STAT3 inhibitor VI 500 μM or dasatinib 1.1 nM for 60 minutes): dependent on steroid receptors, Jak activity, and STAT3 activity, but not BCR-ABL or Src-like Family Kinase activity; proliferation of unstimulated or collagen II-stimulated splenocytes [2]: inhibits the proliferation; Serum conc. [3]: 19 ng/mL; Serum conc. [4]: 17 ng/mL; immune cell infiltrate into the joints (hematoxylin and eosin) [5]: decreased amounts of immune cell infiltrate
